Data set [1] deals with lower esophageal sphincter. Kind of data set: Glucagon infusion through the neuroprosthesis microfluidic channel into the lower esophageal sphincter, intraluminal manometry. It is filed as in vivo, swine. The protocol:
The neuroprosthesis' distal tip was implanted in the lower esophageal sphincter and glucagon was infused through the microfluidic channel. This chemical stimulation yielded relaxation of the sphincter within 10-20 s. […] Muscle tone returned within 1.5 minutes whereupon repeated infusions led to relaxation. Injection of saline produced no measurable effect and served as negative a control.
Following validation of the safety, efficacy, and biocompatibility, the prosthesis was implanted Yorkshire swine (n=2, 94 kg & 70 kg). The optimized electrical stimulation parameters were programmed into the controller. A pump primed the microfluidic channel and injected 5mg/mL glucagon per neurochemical stimulus.
To characterize and validate the neuroprosthesis' ability to sense and create artificial peristalsis, a fluoroscopic pellet study was conducted. Barium sulfate (Bracco E-Z-HD Barium Sulfate for Suspension (98% w/w), Patterson Veterinary) was mixed with a sodium alginate solution (Sigma) in a 50:50 volume by weight ratio. After 10 minutes of sonication at 30 deg C., the suspension was pipetted into a custom silicone mold sized for a triple zero capsule. After 24 hours, these pellets were hydrated with a 2M CaCl2 solution for at least 2 hours and rinsed with PBS for 72 hours. They were then placed in the esophagus using the endoscope. Stimulation and sensing were performed by the neuroprosthesis and the pellet was radiographically visualized using fluoroscopy. Further, intraluminal manometry studies were performed (n=4, swine) to characterize changes in esophageal reflexes and pressures following tool-based tissue manipulation and neuroprosthesis implantation as well as capture artificial peristalsis created by the neuroprosthesis. An intraluminal manometer (Endoflip, Medtronic) was inserted into the middle and lower esophagus using an overtube to profile distensibility, pressure, pattern of motility and minimal diameter of the esophagus. […] Electromyography was recorded from the electrodes during stimulation and rest periods. […]

The subject of the next data set is C2C12 cells. Kind of data set: Extract exposure test (ISO), cell viability by ATP quantitation (CellTiter-Glo). It counts as cell-based. Particulars: 40 um MG-132, positive control, vs negative control (p<0.05). On the procedure: An extract exposure test following ISO norms was performed to evaluate the toxicity of the neuroprosthesis material. 0.2 gm of material were added to 1 mL of DMEM culture medium and stirred at 37° C. for 24 hours or 7 days to create the extract samples. 100 uL of fetal bovine serum were added to 900 uL aliquots of the samples and used to treat C2C12 cells plated in a 96 well plate in triplicate. A negative control of untreated media and positive control of media containing 40 um MG-132, a small molecule proteasome inhibitor, were also performed. At 24 and 72 hours, cell viability was measured through quantitation of ATP using CellTiter-Glo (Promega) using a Tecan M1000Pro.
Background: In ATP-based viability assays light output follows the ATP content of the culture.

Where a SMILES comes first, the peptide text is derived from it. The star is where a group is joined. Cbz = O=C(OCc1ccccc1)*

From US20230098646A1, “NEUROMODULATION DEVICES AND RELATED METHODS” (Massachusetts Institute of Technology, priority 2021, published 2023) come the findings set out here.

For glucagon, the “time to relaxation of the sphincter” value in data set [1] (after glucagon infusion through microfluidic channel, distal tip in lower esophageal sphincter) fell in the range of 10 to 20 s. For the same compound, the “time until muscle tone returned” value in data set [1] (after glucagon infusion, repeated infusions again led to relaxation) was at most 1.5 min. Also, in data set [1] (microfluidic infusion by the neuroprosthesis, 5mg/mL glucagon per stimulus, tonic LES at rest), the “relaxation of the LES on glucagon infusion” value is reported as “yielded relaxation of this LES”.

For `CC(C)C[C@@H](C=O)NC(=O)[C@H](CC(C)C)NC(=O)[C@H](CC(C)C)NC(=O)OCc1ccccc1` [MG-132] (Cbz-Leu-Leu-Leu-aldehyde), in the data set on C2C12 cells, the cell viability entry is given as “significantly decreased cell viability”.
